Tests used:
wild oat = assay: Test B pre/postemergence wild oat; format: in vivo, Avena fatua
Summary of the method: (§1)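 Response is a visual 0-to-10 score relative to untreated plants, where 0 means no effect and 10 means complete control, taken twelve to sixteen days after application. Treatments went onto soil at planting and onto foliage of 1- to 4-leaf plants, using a surfactant-containing non-phytotoxic solvent.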

blackgrass = assay: Test B pre/postemergence blackgrass; format: in vivo, Alopecurus myosuroides
Summary of the method: as §1

giant foxtail = assay: Test B pre/postemergence giant foxtail; format: in vivo, Setaria faberii
Summary of the method: as §1

soybean = assay: Test B pre/postemergence soybean; format: in vivo, Glycine max
Summary of the method: as §1

wheat = assay: Test B pre/postemergence wheat; format: in vivo, Triticum aestivum
Summary of the method: as §1

surinam grass = assay: Test B pre/postemergence surinam grass; format: in vivo, Brachiaria decumbens
Summary of the method: as §1

pigweed = assay: Test B pre/postemergence pigweed; format: in vivo, Amaranthus retroflexus
Summary of the method: as §1

duck salad = assay: Test B flood test duck salad; format: in vivo, Heteranthera limosa
Summary of the method: (§2)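 Each value is a visual injury score relative to controls, with 10 meaning complete control and 0 no effect. Evaluation took place twelve to sixteen days after the 2-leaf-stage plants were treated and kept in the greenhouse.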

cocklebur = assay: Test B pre/postemergence cocklebur; format: in vivo, Xanthium strumarium
Summary of the method: as §1

corn = assay: Test B pre/postemergence corn; format: in vivo, Zea mays
Summary of the method: as §1

rape = assay: Test B pre/postemergence rape; format: in vivo, Brassica napus
Summary of the method: as §1

rice = assay: Test B flood test rice; format: in vivo, Oryza sativa
Summary of the method: as §2

bamyardgrass = assay: Test B flood test barnyardgrass; format: in vivo, Echinochloa crus-galli
Summary of the method: as §2

velvetleaf = assay: Test B pre/postemergence velvetleaf; format: in vivo, Abutilon theophrasti
Summary of the method: as §1

morningglory = assay: Test B pre/postemergence morningglory; format: in vivo, Ipomoea hederacea
Summary of the method: as §1

sugar beet = assay: Test B pre/postemergence sugar beet; format: in vivo, Beta vulgaris
Summary of the method: as §1

bedstraw = assay: Test B pre/postemergence bedstraw; format: in vivo, Galium aparine
Summary of the method: as §1

smallflower flatsedge = assay: Test B flood test smallflower flatsedge; format: in vivo, Cyperus difformis
Summary of the method: as §2

purple nutsedge = assay: Test B pre/postemergence purple nutsedge; format: in vivo, Cyperus rotundus
Summary of the method: as §1

crabgrass = assay: Test B pre/postemergence crabgrass; format: in vivo, Digitaria sanguinalis
Summary of the method: as §1

[1] = Preemergence, Rate 62 g/ha, scale of 0 to 10 where 0 is no effect and 10 is complete control
[2] = Preemergence, Rate 250 g/ha, scale of 0 to 10 where 0 is no effect and 10 is complete control
[3] = Preemergence, Rate 500 g/ha, scale of 0 to 10 where 0 is no effect and 10 is complete control
[4] = Rate 125 g/ha, Preemergence, scale of 0 to 10 where 0 is no effect and 10 is complete control
[5] = Rate 500 g/ha, Postemergence, scale 0 to 10, 0 no effect, 10 complete control
[6] = Rate 62 g/ha, Postemergence, scale of 0 to 10 where 0 is no effect and 10 is complete control
[7] = Rate 125 g/ha, Postemergence, scale 0 to 10
[8] = Rate 62 g/ha, headed Pre-emergence (flood test species), scale 0 to 10 (0 no effect, 10 complete control)
[9] = Rate 125 g/ha, Pre-emergence, flood test species, scale 0 to 10 where 0 is no effect and 10 is complete control
[10] = Rate 250 g/ha, Pre-emergence, flood-test species, scale 0 to 10, 0 is no effect, 10 is complete control
[11] = Rate 500 g/ha, Pre-emergence, flood test species, scale 0 to 10 (0 no effect, 10 complete control)

COC(=O)CCCn1c(=O)on(C(=O)N(c2ccc(F)cc2)C(C)C)c1=O [Compound 266]
9: Blackgrass plant response rating (blackgrass; [2]) | Plant response rating, Blackgrass (blackgrass; [3]) | Plant response rating, Redroot pigweed (pigweed; [3]) | Plant response rating, Bedstraw (bedstraw; [3])
5: Wild oats plant response rating (wild oat; [2]) | Blackgrass plant response rating (blackgrass; [7]) | Plant response rating (0 to 10; 0 is no effect, 10 is complete control), Giant foxtail (giant foxtail; Rate 250 g/ha, Postemergence) | Plant response rating (0 to 10; 0 is no effect, 10 is complete control), Redroot pigweed (pigweed; Rate 250 g/ha, Postemergence) | Rape plant response rating (rape; [2]) | Plant response rating, Rape (rape; [3]) | Velvetleaf plant response rating (velvetleaf; [5]) | Plant response rating (0 to 10; 0 is no effect, 10 is complete control), Morningglory (morningglory; Rate 250 g/ha, Postemergence) | Sugarbeets plant response rating (sugar beet; [4]) | Plant response rating (0 to 10; 0 is no effect, 10 is complete control), Bedstraw (bedstraw; Rate 250 g/ha, Postemergence) | Crabgrass plant response rating (crabgrass; [2]) | Crabgrass plant response rating (crabgrass; [5])
7: Plant response rating, Wild oats (wild oat; [3]) | Giant foxtail plant response rating (giant foxtail; [5]) | Plant response rating, B. signalgrass (surinam grass; [3]) | Redroot pigweed plant response rating (pigweed; [5]) | Rape plant response rating (rape; [5]) | Sugarbeets plant response rating (sugar beet; [2]) | Plant response rating, Sugarbeets (sugar beet; [3]) | Sugarbeets plant response rating (sugar beet; [5])
1: Plant response rating, Morningglory (morningglory; [3]) | Crabgrass plant response rating (crabgrass; [4])
6: Plant response rating (0 to 10; 0 is no effect, 10 is complete control), Blackgrass (blackgrass; Rate 250 g/ha, Postemergence) | Giant foxtail plant response rating (giant foxtail; [2]) | Plant response rating, Wheat (wheat; [3]) | Wheat plant response rating (wheat; [5]) | Redroot pigweed plant response rating (pigweed; [2]) | Plant response rating (0 to 10; 0 is no effect, 10 is complete control), Rape (rape; Rate 250 g/ha, Postemergence) | Bedstraw plant response rating (bedstraw; [5]) | Plant response rating, Crabgrass (crabgrass; [3])
0: Wild oats plant response rating (wild oat; [1]) | Giant foxtail plant response rating (giant foxtail; [1]) | Soybean plant response rating (soybean; [1]) | Soybean plant response rating (soybean; [2]) | Plant response rating, Soybean (soybean; [3]) | Soybean plant response rating (soybean; [4]) | Wheat plant response rating (wheat; [1]) | Wheat plant response rating (wheat; [4]) | B. signalgrass plant response rating (surinam grass; [1]) | B. signalgrass plant response rating (surinam grass; [2]) | B. signalgrass plant response rating (surinam grass; [6]) | B. signalgrass plant response rating (surinam grass; Rate 125 g/ha, Postemergence, scale 0 (no effect) to 10 (complete control)) | B. signalgrass plant response rating (surinam grass; [4]) | Plant response rating (0 to 10; 0 is no effect, 10 is complete control), B. signalgrass (surinam grass; Rate 250 g/ha, Postemergence) | Redroot pigweed plant response rating (pigweed; [1]) | Redroot pigweed plant response rating (pigweed; [4]) | Ducksalad plant response rating (duck salad; [8]) | Ducksalad plant response rating (duck salad; [9]) | Ducksalad plant response rating (duck salad; [10]) | Ducksalad plant response rating (duck salad; [11]) | Cocklebur plant response rating (cocklebur; [1]) | Cocklebur plant response rating (cocklebur; [2]) | Plant response rating, Cocklebur (cocklebur; [3]) | Cocklebur plant response rating (cocklebur; [6]) | Cocklebur plant response rating (cocklebur; [7]) | Cocklebur plant response rating (cocklebur; [4]) | Corn plant response rating (corn; [1]) | Corn plant response rating (corn; [2]) | Plant response rating, Corn (corn; [3]) | Corn plant response rating (corn; [6]) | Corn plant response rating (corn; [7]) | Corn plant response rating (corn; [4]) | Plant response rating (0 to 10; 0 is no effect, 10 is complete control), Corn (corn; Rate 250 g/ha, Postemergence) | Corn plant response rating (corn; [5]) | Rape plant response rating (rape; [1]) | Rape plant response rating (rape; [4]) | Rice plant response rating (rice; [8]) | Rice plant response rating (rice; [9]) | Rice plant response rating (rice; [10]) | Rice plant response rating (rice; [11]) | Barnyardgrass plant response rating (bamyardgrass; [8]) | Barnyardgrass plant response rating (bamyardgrass; [9]) | Barnyardgrass plant response rating (bamyardgrass; [10]) | Barnyardgrass plant response rating (bamyardgrass; [11]) | Velvetleaf plant response rating (velvetleaf; [1]) | Velvetleaf plant response rating (velvetleaf; [2]) | Velvetleaf plant response rating (velvetleaf; [4]) | Morningglory plant response rating (morningglory; [1]) | Morningglory plant response rating (morningglory; [2]) | Morningglory plant response rating (morningglory; [4]) | Sugarbeets plant response rating (sugar beet; [1]) | Bedstraw plant response rating (bedstraw; [1]) | Bedstraw plant response rating (bedstraw; [6]) | Bedstraw plant response rating (bedstraw; [7]) | S. Flatsedge plant response rating (smallflower flatsedge; [8]) | S. Flatsedge plant response rating (smallflower flatsedge; [9]) | S. Flatsedge plant response rating (smallflower flatsedge; [10]) | S. Flatsedge plant response rating (smallflower flatsedge; [11]) | Nutsedge plant response rating (purple nutsedge; [2]) | Plant response rating, Nutsedge (purple nutsedge; [3]) | Nutsedge plant response rating (purple nutsedge; [4]) | Plant response rating (0 to 10; 0 is no effect, 10 is complete control), Nutsedge (purple nutsedge; Rate 250 g/ha, Postemergence) | Crabgrass plant response rating (crabgrass; [1])
4: Giant foxtail plant response rating (giant foxtail; [4]) | Wheat plant response rating (wheat; [2]) | Plant response rating, Velvetleaf (velvetleaf; [3])
8: Blackgrass plant response rating (blackgrass; [1]) | Blackgrass plant response rating (blackgrass; [4]) | Blackgrass plant response rating (blackgrass; [5]) | Plant response rating, Giant foxtail (giant foxtail; [3]) | Soybean plant response rating (soybean; [5]) | Morningglory plant response rating (morningglory; [5]) | Bedstraw plant response rating (bedstraw; [2])
3: Blackgrass plant response rating (blackgrass; [6]) | Bedstraw plant response rating (bedstraw; [4]) | Nutsedge plant response rating (purple nutsedge; [5]) | Plant response rating (0 to 10; 0 is no effect, 10 is complete control), Crabgrass (crabgrass; Rate 250 g/ha, Postemergence)
2: Wild oats plant response rating (wild oat; [4]) | Wild oats plant response rating (wild oat; [5]) | B. signalgrass plant response rating (surinam grass; [5]) | Plant response rating (0 to 10; 0 is no effect, 10 is complete control), Cocklebur (cocklebur; Rate 250 g/ha, Postemergence) | Cocklebur plant response rating (cocklebur; [5])
